# From US20050043260A1, “Wnt as a factor for cardiac myogenesis” (BAYLOR COLLEGE OF MEDICINE, priority 2003, published 2005)
# Key:
# Format in all cases: cell-based
# [1] = test system: P19CL6 cells; experiment: Cardiac-specific gene expression by QRT-PCR in differentiating P19CL6 cells; design: expression of Nkx2.5, GATA4, Tbx5, BMP2, BMP4: dose or concentration left out as unconfirmed
# Method: (§1) Cells were grown on 10 cm dishes in α-minimal MEM; Invitrogen) supplemented with 10% fetal bovine serum (FBS) (Hyclone), streptomycin. To induce differentiation, cells were seeded at a 1:40 dilution with α-MEM, DMSO. For each experiment, cardiomyocyte differentiation was apparent in the control spontaneous beating, starting day 9 to 10. To obtain stable transformants incorporating GSK-vector control, cells were transfected using Lipofectamine2000 (Invitrogen) and medium containing 500 μg/ml Geniticin (Invitrogen). After 10-14 day, 60 colonies were picked and screened by RT-PCR. To detect exogenous GSK-3β selectively, the 5′ primer corresponded to the N terminus and the 3′ primer to the H. influenza hemagglutinin epitope tag.
# RNA was isolated using TRIzol (Invitrogen). RNA (0.1 μg) was subjected to quantitative RT-PCR using the TaqMan One-step RT-PCR Master Mix Biosystems); the RT and PCR were run sequentially using a 7700 Sequence Detector (Applied Biosystems). Copy number for each transcript was expressed relative to that of glyceraldehyde-3-phosphate dehydrogenase (GAPDH), used as a constitutive control. RT-PCR for FGF8 and β-actin was done as described by Lee et al., 2000).
# [2] = test system: TCF-dependent transcription; experiment: TCF-dependent transcription, TOPFLASH luciferase assay in P19CL6 cells; conditions: DMSO treatment for 4 days
# Method: Cells were seeded and cultured as above and transfected 1 day after plating, using in serum-free αMEM for 6 hr. Transfections contained 0.5 μg TOPFLASH or 0.1 μg pRL-CMV as the co-transfected control. Medium containing 10% FBS with or without DMSO changed 6 and 48 hr after transfection. Cells were lysed 4 days after DMSO treatment and luciferase assayed using the Dual-Luciferase system (Promega). Firefly luciferase activity, indicating TCF-dependent transcription, was normalized to the Renilla luciferase activity of each extract. TOPFLASH activity induced by Wnt3A CM versus control CM was measured after 18 hr. Activity of the GSK-3βA9 expression vector was corroborated by transient transfection in 293T cells: cells were passaged at a 1:2.5 dilution into 24-well dishes, and TOPFLASH, pRL-CMV, and PGK-Wnt3A were co-transfected by calcium-phosphate precipitation along with pcDNA3-GSK-3βA9-HA versus the empty vector control (Jordan et al., 1996). Twenty-four hrs after transfection, the medium was changed to Dulbecco's modified Eagle's medium (DMEM) supplemented with 0.2% BSA. Forty-eight hrs after transfection, cells were lysed and luciferase activities were assayed.
# [3] = test system: β-catenin; experiment: β-catenin and phospho-β-catenin Western blot / immunostaining in differentiating cells
# Method: (§2) Cells were seeded on glass cover slips and cultured with or without DMSO for 3 days. Cells were fixed with 4% paraformaldehyde and penneablized with 0.2% Triton X-100 for 5 min. To detect phosphorylated β-catenin, cells were incubated overnight with rabbit antibody to phoshpo-β-catenin (Ser33/Ser37/Thr4l; Cell Signaling) in Tris-buffered saline, 3% bovine serum albumin, then for 1 hr with goat antibody to rabbit IgG conjugated with Alexa Fluor 488 (Molecular Probes). Immunostaining for sarcomeric myosin heavy chains (MHC) was performed using fluorescein isothiocyanate-conjugated MF20 antibody (Oh et al., 2001). Nuclei were counterstained with DAPI.
# Cells were seeded on 6-well dishes (1.67×10^6 cells/well) and cultivated with or without 1% DMSO and 500 ng/ml Fx/FC chimeric protein. After 3 days, cells were harvested in phosphate-buffered saline in 4 C, centrifuged, and resuspended in 20 mM Tris-HCl, pH 7.5, 25 mM sodium fluoride, 1 mM EDTA, containing a protease inhibitor cocktail (Roche Molecular Biochemicals). Cells were incubated on ice for 20 min, followed by 30 strokes in a Dounce homogenizer, and centrifuged at 100,000×g for 30 min. The supernatant was collected as the soluble, cytoplasmic fraction and electrophoresised in 10% SDS-polyacrylamide gels. […]
# [4] = test system: P19CL6 cells; experiment: Spontaneous beating of differentiating cells
# Method: as §1
# [5] = test system: P19CL6 cells; experiment: Sarcomeric MHC immunostaining (MF20-positive cells); design: dose or concentration left out as unconfirmed; conditions: LiCl, day 12
# Method: as §2
Compound,"time to expression of Nkx2.5, GATA4, MEF2C, and Tbx5 as early stage markers ([1]; 1% DMSO treatment, QRT-PCR) [days]","Wnt3A and Wnt8A induced as early as ([1]; after DMSO treatment, expression greatest on day 3) [days]",increase in luciferase activity (TCF-dependent transcriptional activity) [2] [fold],"phosphorylated β-catenin ([3]; DMSO treatment for 3 days, immunoblotting and immunocytochemistry)","soluble (cytosolic) β-catenin level ([3]; DMSO, day 3, Western blot)",spontaneous beating visible ([4]; 1% DMSO treatment) [days],"expression of Nkx2.5, GATA4, Tbx5, BMP2, BMP4 ([1]; d 5, QRT-PCR)",effect on each of the early cardiac markers and on sarcomeric MHC ([1]; in the absence of DMSO),"spontaneous beating ([4]; treated alone, without DMSO)",MF20-positive cells [5]
C[S+](C)[O-] [DMSO],3 to 8,2,9,decreased,accumulation of soluble β-catenin,9 to 10,–,–,–,–
[Cl-].[Li+] [LiCl],–,–,–,–,–,–,significantly increased,inductive effect,did not show spontaneous beating,significantly increased
